In ChEMBL document CHEMBL1201862, “PubChem BioAssay data set” (2004) one finds IC50 data, which are given here for two compounds.

The structures appear in SMILES notation. Active and inactive are the calls of the source. No stated cut-off is given here; in the data, actives have a measured IC50 and inactives only a lower limit.

In this assay the target is Envelope glycoprotein gp160 (Human immunodeficiency virus 1, UniProt Q6QLK5). The assay is described as follows: inhibitors of HIV fusion peptide binding, primary screen, biochemical, uHTS, fluorescence dequenching (AID 1986).
Sequence of Envelope glycoprotein gp160 (Q6QLK5 whole entry, the tested form may be a part): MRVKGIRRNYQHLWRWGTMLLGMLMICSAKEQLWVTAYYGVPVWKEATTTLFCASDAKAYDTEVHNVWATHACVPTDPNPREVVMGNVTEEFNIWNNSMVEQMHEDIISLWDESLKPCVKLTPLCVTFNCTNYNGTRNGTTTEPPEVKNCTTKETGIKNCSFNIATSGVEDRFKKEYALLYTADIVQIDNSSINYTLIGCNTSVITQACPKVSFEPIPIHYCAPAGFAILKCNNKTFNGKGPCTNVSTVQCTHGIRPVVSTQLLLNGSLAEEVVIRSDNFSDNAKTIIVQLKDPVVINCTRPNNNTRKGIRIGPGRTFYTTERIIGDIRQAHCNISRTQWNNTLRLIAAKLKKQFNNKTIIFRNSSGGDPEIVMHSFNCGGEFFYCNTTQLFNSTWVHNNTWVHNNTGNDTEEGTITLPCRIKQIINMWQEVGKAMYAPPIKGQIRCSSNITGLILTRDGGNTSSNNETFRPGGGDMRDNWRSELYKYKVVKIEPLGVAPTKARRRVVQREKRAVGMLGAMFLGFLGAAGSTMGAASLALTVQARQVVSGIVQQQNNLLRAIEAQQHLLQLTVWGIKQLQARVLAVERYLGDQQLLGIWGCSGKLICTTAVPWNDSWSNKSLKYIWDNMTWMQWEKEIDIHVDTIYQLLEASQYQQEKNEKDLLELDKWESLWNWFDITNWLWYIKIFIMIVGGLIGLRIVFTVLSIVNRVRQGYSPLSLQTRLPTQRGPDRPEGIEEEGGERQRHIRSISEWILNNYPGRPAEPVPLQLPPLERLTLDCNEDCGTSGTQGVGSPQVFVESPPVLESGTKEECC

Usually IC50 stands for the concentration needed to halve the response being measured. In the case of `N#Cc1c(-c2ccccc2)nc(SCc2cccc(C(F)(F)F)c2)[nH]c1=O`, the 50% inhibitory concentration (IC50) is 10.4 µM (active).
The figure for `O=[N+]([O-])c1cc(Cl)cc(/C=N/NC(=S)Nc2cc(S(=O)(=O)N3CCOCC3)ccc2Cl)c1O` is 9.41 µM (active).
